Test results as given in US20100249418A1, “NOVEL COMPOUND HAVING AFFINITY FOR AMYLOID” (NIHON MEDI-PHYSICS CO., LTD., priority 2007, published 2010).
Like-named read-outs stand apart in the source and are kept apart here.

Assays:
[1] = [11C]-labeled, rats; cited from earlier work
[2] = reported in WO03/106439; cited from earlier work
[3] = Measurement of partition coefficient based on the octanol extraction method (log Poctanol); type: physicochemical; settings: octanol / 10 mmol/L phosphate buffer (pH 7.4)
Description: Partition coefficients based on the octanol extraction method (hereinafter referred to as log Poctanol) were measured, which are generally known as an indicator of permeability of compounds through the blood-brain barrier (hereinafter referred to as BBB).
Each diethyl ether solution of Compound 1, Compound 2, Compound 3 and Compound 4 as well as a diethyl ether solution of [^123I]-IMPY were each diluted with 10 mg/mL ascorbic acid-containing physiological saline solution, and adjusted to a radioactive concentration of 27-30 MBq/mL. To 2 mL of octanol, 10 μL each of these solutions was added, and 2 mL of 10 mmol/L phosphate buffer (pH 7.4) was added, followed by stirring for 30 seconds. After each mixture was centrifuged (2000 rpm×60 min.) with a low-speed centrifuge (type: CTD4, manufactured by Hitachi Koki Co., Ltd), the octanol layer and the water layer were sampled each in an amount of 1 mL, and subjected to measurement of radioactivity count with an autowell gamma system (Type: ARC-301B, manufactured by Aloka). Using the obtained radioactivity count, log Poctanol was calculated in accordance with the equation (1).

[4] = Measurement of transferability into brain and clearance (radioactive accumulation in brain after intravenous injection); type: in vivo, male Wistar rats; settings: rats; for Radioactive accumulation per unit weight, After 2 min. / Radioactive accumulation per unit weight, After 5 min. / Radioactive accumulation per unit weight, After 30 min. / Radioactive accumulation per unit weight, After 60 min.: brain; for Radioactive accumulation per unit weight, After 2 min.: 2 min after injection; for Radioactive accumulation per unit weight, After 5 min.: 5 min after injection; for Radioactive accumulation per unit weight, After 30 min.: 30 min after injection; for Radioactive accumulation per unit weight, After 60 min.: 60 min after injection; for Transferability to brain and clearance from brain (in words): 2 to 60 min
Description: Using Compound 1, Compound 2, Compound 3 and Compound 4, a time course change of radioactive accumulation in brain of male Wistar rats (7-week old) was measured.
Compound 1 in 10 mg/mL ascorbic acid-containing physiological saline solution (27 MBq/mL in radioactive concentration), Compound 2 in 10 mg/mL ascorbic acid-containing physiological saline solution (27 MBq/mL in radioactive concentration), Compound 3 in 10 mg/mL ascorbic acid-containing physiological saline solution (28 MBq/mL in radioactive concentration) and Compound 4 in 10 mg/mL ascorbic acid-containing physiological saline solution (30 MBq/mL in radioactive concentration) were prepared to obtain sample solutions. The sample solutions were injected under thiopental anesthesia into the tail vein of the male Wistar rats (7-week old) (dosage: 0.05 mL, dosed radioactivity: 1.4-1.5 MBq equivalent). The rats were sacrificed by bleeding from abdominal artery, and brains were removed and subjected to measurement of mass of brains and further subjected to measurement of radioactivity (hereinafter referred to as A in this Example) with a single channel analyzer (detector type: SP-20 manufactured by OHYO KOKEN KOGYO Co., Ltd.) 2, 5, 30 and 60 minutes after the injection. Further, the radioactivity level of the rest of the whole body was measured in the same manner as above (hereinafter referred to as B in this Example). Using these measurement results, radioactive accumulation per unit weight of brain (% ID/g) at the respective time points of dissection was calculated in accordance with the following formula (2) (Examples 19 to 22).
Separately, [^123I]-IMPY in 10 mg/mL ascorbic acid-containing physiological saline solution (16 MBq/mL in radioactive concentration) was prepared, the same procedure as above was conducted, and radioactive accumulation per unit weight of brain (% ID/g) at the respective time points of dissection was calculated (Comparative Example 1).
Meanwhile, three animals were used for all Examples and Comparative Example 2 at the respective time points.

[5] = system: Salmonella typhimurium TA98; assay: Reverse mutation test (Ames test), TA98; type: cell-based
Description: (§1) In order to examine gene mutagenicity of Compound 5, reverse mutation test using Salmonella typhimurium TA98 and TA100 (hereinafter referred to as Ames test) was conducted.
(§2) The test was conducted without addition of S9mix and with addition of S9mix. Dimethylsulfoxide (hereinafter referred to as DMSO) was used as a negative control. A positive control was 2-(2-furyl)-3-(5-nitro-2-furyl)acrylamide (hereinafter referred to as AF-2) in case S9mix was not added, and 2-aminoanthracene (hereinafter referred to as 2-AA) in case S9mix was added.
(§3) As a sample solution to be added to a test plate, a solution at maximum concentration in which Compound 5 was dissolved in DMSO (concentration of compound: 50 mg/mL) and a sample solution to be added to a test plate at each concentration in which a solution at maximum concentration was diluted with DMSO were prepared. […]

[6] = system: Salmonella typhimurium TA100; assay: Reverse mutation test (Ames test), TA100; type: cell-based
Description: as §1, §2, §3

[7] = system: Salmonella typhimurium TA98 and TA100; assay: Reverse mutation test (Ames test), overall statement for both strains; type: cell-based
Description: as §1, §2, §3

[8] = [125I]-labeled, normal mice, cited from earlier work; for Transfer into brain: 2 minutes after administration
amyloid = settings: [125I]-labeled compounds, cited from earlier work

Row | Molecule | logPoctanol value [3] | Radioactive accumulation per unit weight, After 2 min. [4] | Radioactive accumulation per unit weight, After 5 min. [4] | Radioactive accumulation per unit weight, After 30 min. [4] | Radioactive accumulation per unit weight, After 60 min. [4] | Transferability to brain and clearance from brain (in words) [4] | other results
1 | CNc1ccc(/C=C/c2ccc(O)cc2)cc1 [SB-13, (E)-4-methylamino-4′-hydroxystilbene] |  |  |  |  |  |  | Clearance from normal tissues [1]: it cannot be said that the clearance is sufficiently fast
2 | CC(=C(C#N)C#N)c1ccc2cc(N(C)CCF)ccc2c1 [FDDNP, 2-(1-{6-[(2-fluoroethyl)(methyl)amino]-2-naphthyl}ethylidene)malononitrile] |  |  |  |  |  |  | Reverse mutation test result [2]: positive
3 | 3-cyano-2-[4′-(2″-hydroxyethoxy)phenyl]-6-[^123I]iodoimidazo[1,2-a]pyridine [Compound 4] | 3.0 | 0.82 % ID/g | 0.67 % ID/g | 0.18 % ID/g | 0.04 % ID/g | excellent transferability to brain and rapid clearance from brain | 
4 | Cc1c(-c2ccc(OCCO)cc2)nc2ccc(I)cn12 [Compound 5, 2-[4′-(2″-hydroxyethoxy)phenyl]-6-iodo-3-methylimidazo[1,2-a]pyridine] |  |  |  |  |  |  | Mutagenicity, TA98, with addition of S9mix ([5]; with addition of S9mix): Negative; Mutagenicity, TA98, without addition of S9mix ([5]; without addition of S9mix): Negative; Mutagenicity, TA100, with addition of S9mix ([6]; with addition of S9mix): Negative; Mutagenicity, TA100, without addition of S9mix ([6]; without addition of S9mix): Negative; Ames test judgement (mutagenicity) ([7]; TA98 and TA100, with and without S9mix): negative in the Ames test and has no mutagenicity
5 | CN(C)c1ccc(/C=C/c2ccc(I)cc2)cc1 [m-I-SB, (E)-4-dimethylamino-4′-iodostilbene] |  |  |  |  |  |  | Transfer into brain [8]: transferred into brain; Clearance from normal tissues [8]: insufficient in clearance from normal tissues
6 | Cc1c(-c2ccc(F)cc2)nc2ccc([123I])cn12 [Compound 1, 2-(4′-fluorophenyl)-6-[^123I]iodo-3-methylimidazo[1,2-a]pyridine] | 2.3 | 0.91 % ID/g | 0.60 % ID/g | 0.08 % ID/g | 0.03 % ID/g | excellent transferability to brain and rapid clearance from brain | 
7 | CN(C)c1ccc(-c2cn3cc([123I])ccc3n2)cc1 [[^123I]-IMPY, reference compound] | 1.9 | 1.19 % ID/g | 0.97 % ID/g | 0.23 % ID/g | 0.09 % ID/g | excellent transferability to brain and rapid clearance from brain | 
8 | CN(C)c1ccc(-c2cn3cc(I)ccc3n2)cc1 [IMPY, 6-iodo-2-[4′-(N,N-dimethylamino)phenyl]imidazo[1,2-a]pyridine] |  |  |  |  |  |  | Reverse mutation test result [2]: positive; Transfer to brain and accumulation at amyloid (amyloid; after administration): transferring to brain and accumulating at amyloid after administration; Clearance from normal tissues (amyloid): rapid clearance from normal tissues
9 | CN(C)c1ccc(-c2nc3ccc(I)cc3s2)cc1 [TZDM, 6-iodo-2-[4′-(N,N-dimethylamino)phenyl]benzothiazole] |  |  |  |  |  |  | Transfer into brain [8]: transferred into brain; Clearance from normal tissues [8]: insufficient in clearance from normal tissues
10 | CN(C)c1ccc(-c2nc3ccc(I)cc3o2)cc1 [IBOX, 6-iodo-2-[4′-(N,N-dimethylamino)phenyl]benzoxazole] |  |  |  |  |  |  | Transfer into brain [8]: transferred into brain; Clearance from normal tissues [8]: insufficient in clearance from normal tissues
11 | 2-(4′-hydroxyphenyl)-6-[^123I]iodo-3-methylimidazo[1,2-a]pyridine [Compound 3] | 2.5 | 0.50 % ID/g | 0.34 % ID/g | 0.05 % ID/g | 0.01 % ID/g | excellent transferability to brain and rapid clearance from brain | 
12 | 2-[4′-(2″-hydroxyethoxy)phenyl]-6-[^123I]iodo-3-methylimidazo[1,2-a]pyridine [Compound 2] | 2.2 | 0.57 % ID/g | 0.36 % ID/g | 0.05 % ID/g | 0.01 % ID/g | excellent transferability to brain and rapid clearance from brain | Number of reverse mutation colonies relative to the group treated with the negative control ([7]; regardless of addition of S9mix and the addition amount of sample, negative control DMSO): less than two times
